The values below come from patent US6914046B1, “NF-κB activation inhibitors, and their pharmaceutical uses” (Centre National de la Recherche Scientifique, priority 1999, dated 2005).

Entries after “also recorded” stand apart in the source; their conditions may differ.

In assay [1] the test system is human renal carcinoma cells (RCC) HIEG. As to the kind of experiment: Number of living RCC cells 48 h after daunomycin, flow cytometry. Format: cell-based. Here is the method: Erythropoietin (EPO), another molecule than HGH belonging to the same family of cytokines of class I, has been tested on human renal carcinoma cells (RCC) HIEG.
4.10^4 RCC cells have been transfected in a transitory manner with the help of an Effecten^R kit, or with 3 μg of plasmid carrying the gene encoding for EPO (RCC-EPO cells), or with 3 μg of a plasmid coding for the resistance to neomycin (RCC-Neo cells) as the negative control. After 48 hours, the RCC were combined with daunomycin at two different concentrations: 0.3 and 0.6 μM. The number of surviving cells was measured 48 hours later by flow cytometry (FIG. 6).
FIG. 6: Effect of erythropoietin on the apoptosis of the human renal carcinoma line HIEG, induced by daunomycin: for each of the experiments 1 and 2, the number of living cells is indicated on the ordinate, the white columns correspond to the RCC-Neo cells, the black columns correspond to the RCC-EPO cells; the concentrations of daunomycin are indicated on the abscissa in μM.

Assay [2] has as its system human ovarian adenocartcinoma IGROV/ADR. As to the kind of experiment: Death of adriamycine resistant IGROV/ADR cells by daunomycin with recombinant HGH. Format: cell-based. The text has this: To test the possibility of using the object of the present invention on non-lymphoid tumors, the inventors have used HGH to try to invert the “adriamycine resistant” phenotype of cells isolated from a human ovarian adenocartcinoma IGROV/ADR (Bénard J et coll., 1985, Cancer Res, 45:4970-4979).
FIG. 5: Effect of growth hormone on the apoptosis of the IGROV/ADR line, induced by daunomycin; the percentage of dead cells (IP+) is indicated on the ordinate, and different columns corresponding to the different concentrations of HGH used (0, 5, 50, 500, 1000 ng/ml); the concentrations of daunomycin are indicated on the abscissa in μM.

The test system of assay [3] is NF-κB. As to the kind of experiment: NF-κB-driven CAT reporter ELISA after -TNF stimulation. Format: cell-based, human. The following applies: U937-HGH versus U937-Neo cells. Here is the method:
The cells are transfected by electroporation then incubated with -TNF. At the end of culturing, the cells are lysated and the activated CAT is measured by an commercial ELISA (Boehringer-Mannheim), according to the directions of the supplier.
FIG. 3: Effect of growth hormone on the reporter activity CAT; the percentage of variation of CAT activity is indicated on the abscissa; the two left columns show the two experiments carried out on U937-Neo cells, and the two right columns represent the two independent experiments carried out on U937-HGH cells.

Assay [4] deals with NF-κB. As to the kind of experiment: Gel delay analysis of nuclear extracts for NF-κB after -TNF stimulation. Type of assay: cell-based, human. As to conditions: U937-HGH cells versus U937 control cells, -TNF or -TNF and cycloheximide. The source says: On this gel were deposited nuclear extracts from the U937-HGH and U937 cells (the mother line having served for obtaining the U937-HGH lines) subjected to different inductors including -TNF or -TNF and cycloheximide (inhibitor of protein synthesis).
FIG. 2: The effect of growth hormone on the translocation of NF-κB; column 1 corresponds to the control cells U937, column 2 corresponds to the U937 cells treated with -TNF+cycloheximide, column 3 corresponds to the U937 cells treated with -TNF, column 4 corresponds to the U937 cells treated with -TNF+a mutant NF-κB probe, column 5 corresponds to the U937 cells treated with -TNF +a homologous NF-κB probe, column 6 corresponds to the control cells U937-HGH, column 7 corresponds to the U937-HGH cells treated with -TNF+cycloheximide, column 8 corresponds to the U937-HGH cells treated with -TNF; the presence of NF-κB is indicated by an arrow.

The test system of assay [5] is U937-HGH and U937-Neo cells. As to the kind of experiment: Death mediated by daunomycin in U937-HGH versus control line (IP+ cells). Format: cell-based, human. The source says:
FIG. 4: Effect of growth hormone on apoptosis induced by daunomycin; the percentage of the dead cells (IP+) is indicated on the ordinate, the white columns corresponding to the cells of the strain U937-Neo, the black columns corresponding to the cells of the strain U937-HGH; the indicated percentages show the increase of mortality of the cells; the concentrations of daunomycin are indicated on the abscissa in μM.

For assay [6], the system named is NF-κB. The following applies: human monocytes, exogenous recombinant HGH; cited from earlier work.
Assay [7] deals with U937-HGH and U937-Neo cells. As to the kind of experiment: Propidium iodide incorporation (flow cytometry) after 48 h culture with recombinant -TNF. As to conditions: U937-HGH line versus U937 / U937-Neo control. Format: cell-based, human. The source says:
A selection gene (neomycin resistant, Neo^R) and the gene encoding for human growth hormone (HGH) have been co-transfected in the human promyeloid leukemic line U937. By comparing the transfected line U937-HGH (which produces in a constituent fashion HGH at physiologic doses), either to the parent line U937, or to a line transfected with Neo^R alone, there are observed by different methodological approaches, that the U937-HGH line dies more under the effect of the tumor necrosis factor (-TNF). This cytokine secreted by different types of immune cells has in an anti-tumor activity (Harakana, K et al., 1984, Int J Cancer, 34:263-267) and is capable of promoting the activation of NF-κB (Baeuerle P A, Henkel T, 1994, Ann Rev Immunol, 12:141-179).
The U937-HGH cells and the U937-Neo control cells have been cultured for 48 hours in the presence of increasing concentrations of recombinant -TNF. As a result of this culture, the washed cells have been incubated in the presence of propidium iodide which is incorporated in the DNA of the dead cells. These cells are analyzed by flowing cytometry. […]

The test system of another assay is human monocytes. As to the kind of experiment: Death of human monocytes after engagement of APO1/CD95/Fas. Format: cell-based.

For `COc1cccc2c1C(=O)c1c(O)c3c(c(O)c1C2=O)C[C@@](O)(C(C)=O)C[C@@H]3O[C@H]1C[C@H](N)[C@H](O)[C@H](C)O1` [daunomycin], the “numbers of living cells” value is recorded as 3487 in assay [1] (Experiment 1, RCC-EPO cells, daunomycin 0.3 μM); 8551 in assay [1] (Experiment 1, RCC-EPO cells, daunomycin 0.6 μM); 11382 in assay [1] (Experiment 1, RCC-Neo cells, daunomycin 0.3 μM); 10179 in assay [1] (Experiment 1, RCC-Neo cells, daunomycin 0.6 μM); 2693 in assay [1] (Experiment 2, RCC-EPO cells, daunomycin 0.3 μM); 4739 in assay [1] (Experiment 2, RCC-EPO cells, daunomycin 0.6 μM). Moreover, the “numbers of living cells” value in assay [1] (Experiment 2, RCC-Neo cells, daunomycin 0.3 μM) was determined as 8891; in assay [1] (Experiment 2, RCC-Neo cells, daunomycin 0.6 μM), 7001. In addition, the “toxic effect of daunomycin on IGROV/ADR cells” value in assay [2] (HGH 0 ng/ml) is reported as “insensitive to the toxic effect”.

B1: HGH: human growth hormone (SEQ ID NO 2); produced by transfected U937-HGH line or recombinant exogenous HGH (Saizen, Serono) (protein, listed as Homo sapiens)
chain: MATGSRTSLLLAFGLLCLPWLQEGSAFPTIPLSRLFDNASLRAHRLHQLAFDTYQEFNPQTSLCFSESIPTPSNREETQQKSNLELLRISLLLIQSWLEPVQFLRSVFANSLVYGASDSNVYDLLKDLEEGIQTLMGRLEDGSPRTGQIFKQTYSKFDTNSHNDDALLKNYGLLYCFRKDMDKVETFLRIVQCRSVEGSCGF
As to B1, in the assay on NF-κB [3], the “CAT activity, reflected by the presence of NF-κB” value is “decreased in the U937-HGH cells relative to the control cells”. Besides, the “presence of NF-κB in the nuclei” value in the assay with NF-κB [4] is given as “decreased relative to the control cells”. Moreover, the “sensitivity to death mediated by daunomycin” value in assay [5] was “more sensitive than the control line”. The “activation of NF-κB after stimulation by LPS” value with NF-κB [6] is “inhibits the activation of NF-κB”. For the same molecule, the “effect of HGH on death mediated by -TNF” value in assay [7] is recorded as “accelerates the death of these cells; also recorded: increases their susceptibility to the induction of death”. Also, in the assay on human monocytes, the “death mediated through the molecule Fas” value is “decreases the death” and the “synthesis of proto-oncogene Bc1-2” value was “increasing the synthesis”. For the same molecule, the “dose of HGH giving maximum effect” value in assay [2] (lowest dose of HGH used, sensitisation to daunomycin) is 5 ng/mL. The “effect of recombinant HGH on sensitivity of IGROV/ADR cells to daunomycin” value in assay [2] (recombinant HGH (Saizen) added to culture) is “renders these cells sensitive to daunomycin”.
